Test results from patent US20130202646A1, “COMPOSITIONS AND METHODS FOR MODULATING AUTOPHAGY” (SAN DIEGO STATE UNIVERSITY (SDSU) FOUNDATION, priority 2010, published 2013).

Tests used:
[1] = test system: HL-1 cells; test: Autophagy scored by intracellular distribution of GFP-LC3 (fluorescence microscopy) in HL-1 cells; format: cell-based, murine; conditions: for effect on upregulation/induction of autophagy by CCPA: inhibitor pretreatment, then CCPA, normoxic, before ischemia
[2] = test system: mCherry-LC3 transgenic mice; test: Induction of autophagy in vivo in hearts of mCherry-LC3 transgenic mice
[3] = test system: adult rat cardiomyocytes; conditions: CCPA 10 min before simulated ischemia (FIG. 7B)
[4] = test system: HL-1 cells; test: Cell death by LDH release after simulated ischemia/reperfusion (sI/R) in HL-1 cells; format: cell-based, murine; conditions: for effect on cytoprotection by CCPA (LDH release): inhibitor plus CCPA, then sI/R (2 hr sI, 3 hr R)
Procedure: Cells of the murine atrial-derived cardiac cell line HL-1^16 were plated in gelatin/fibronectin-coated culture vessels and maintained in Claycomb medium^16 (JRH Biosciences, Lenexa, Kans.) supplemented with 10% fetal bovine serum, 0.1 mm norepinephrine, 2 mm […], 100 U·mL^-1 penicillin, 100 U·mL^-1 streptomycin, and 0.25 μg·mL^-1 amphotericin B. Cells were plated in 14-mm diameter glass bottom microwell dishes (MatTek), and ischemia was introduced by a buffer exchange to ischemia-mimetic solution (in mM: 20deoxyglucose, 125 NaCl, 8 KCl, 1.2 KH2PO4, 1.25 MgSO4, 1.2 CaCl2, 6.25 NaHCO2, 5 sodium lactate, 20 HEPES, pH 6.6) and placing the dishes in hypoxic pouches (GasPakTM EZ, BD Biosciences) equilibrated with 95% N2, 5% CO2. After 2 hr of simulated ischemia, reperfusion was initiated by a buffer exchange to normoxic MKH buffer and incubation at 95% room air, 5% CO2. Controls incubated in normoxic MKH buffer were run in parallel for each condition for periods of time that corresponded with those of the experimental groups. […] The cell cultures were washed with PBS prior to the experimental treatment. Protein content and LDH activity were determined according to El-Ani et al.^20. Briefly, 25 μl supernatants from 35 mm dishes were transferred into wells of a 96-well plate, and the LDH activities were determined with an LDH-L kit (Sigma), according to the manufacturer. The product of the enzyme was measured spectrophotometrically at 30° C. at a wavelength of 340 nm as described previously^21. The results were expressed relative to the control (X-fold) in the same experiment. Each experiment was done in triplicate and was repeated at least three times.

[5] = test system: neonatal rat cardiomyocytes; test: Autophagosomes (GFP-LC3) in neonatal rat cardiomyocytes; conditions: 100 nM CCPA, 10 min
Procedure: To analyze the number of GFP-LC3 puncta in population, cells were inspected at 60× magnification and classified as: (a) cells with predominantly diffuse GFP-LC3 fluorescence; or as (b) cells with numerous GFP-LC3 puncta (>30 dots/cell), representing autophagosomes. At least 200 cells were scored for each condition in three or more independent experiments.
(A) GFP-LC3 transfected HL-1 cells were treated for 120 min in full medium (FM) with various concentrations (0.001-10 μM) of CCPA. (B) GFP-LC3-transfected HL-1 cells were treated with 100 nM CCPA for the indicated time, then fixed with paraformaldehyde and scored by fluorescence microscopy. […] (D) Representative images of neonatal cardiomyocytes under control conditions or 10 min after administration of 100 nM CCPA. (E) Representative images of adult cardiomyocytes under control conditions or 10 min after administration of 100 nM CCPA. (F) Transgenic mice expressing mCherry-LC3 under the αMHC promoter received an i.p. injection of saline or 1 mg/kg CCPA, then were sacrificed 30 min later and heart tissue was processed for fluorescence microscopy.

[6] = test system: HL-1 cells; test: Cell death by propidium iodide uptake after sI/R in HL-1 cells; format: cell-based, murine; conditions: 100 nM CCPA 10 min before sI/R; end of reperfusion
Procedure: Cells were plated in 14-mm diameter glass bottom microwell dishes (MatTek), and ischemia was introduced by a buffer exchange to ischemia-mimetic solution (in mM: 20deoxyglucose, 125 NaCl, 8 KCl, 1.2 KH2PO4, 1.25 MgSO4, 1.2 CaCl2, 6.25 NaHCO2, 5 sodium lactate, 20 HEPES, pH 6.6) and placing the dishes in hypoxic pouches (GasPakTM EZ, BD Biosciences) equilibrated with 95% N2, 5% CO2. After 2 hr of simulated ischemia, reperfusion was initiated by a buffer exchange to normoxic MKH buffer and incubation at 95% room air, 5% CO2. Controls incubated in normoxic MKH buffer were run in parallel for each condition for periods of time that corresponded with those of the experimental groups. Cells were stained immediately after sI/R with propidium iodide (5 μg/ml), which stains nuclei of cells whose plasma membranes have become permeable because of cell damage. The assay was performed according to […] et al.^22. For counterstaining we used Hoechst 33342 (10 μM), which stains the nuclei of all cells.

[7] = test system: adult rat cardiomyocytes; test: Autophagy (GFP-LC3 puncta) in adult rat cardiomyocytes; format: cell-based
[8] = test system: PKC epsilon; test: PKC epsilon translocation in perfused rat heart; format: cell-based; conditions: after SUL administration
Procedure: Subcellular fractionation. Frozen heart samples were thawed on ice in homogenization buffer containing (in mmol/L): Tris-HCL 20, EDTA 2, EGTA 10, PMSF 1, leupeptin 0.1, E-64 0.01, and sucrose 250). The tissue was then minced and Plytron homogenized (Kinematica, Basel, Switzerland) on ice for 15s for three passes. The homogenates were centrifuged at 600 g for 5 min at 4° C, and the crude supernatants were further centrifuged at 10,000 g for 10 min 4° C. The supernatant, designated as crude cytosol, was divided and one fraction was further centrifuged at 100,000 g for 1 h at 4° C. The resulting supernatant was designated as cytosolic fraction. The pellet was resuspended in homogenization buffer with 1% TritonX-100, incubated on ice for 1 h, then centrifuged at 100,000 g for 1 h at 4° C. The resulting supernatant was designated as the particulate fraction. Samples were stored at −80° C. until use. Western blot analysis. Proteins prepared from rat hearts were quantified by Bio-Rad protein assay. For immunodetection, 50 μg of crude cytosol prepared as above were resolved on SDS-PAGE 10% denaturing gels and transferred to PVDF nylon membranes. The membranes were blocked with 5% nonfat dry milk in TNT buffer (in mM: NaCl 100, Tris·HCl 10 (pH 7.4), and 0.1% Tween-20) for 1 h. […] To quantify the protein, intensity of bands was assessed with Scion Image Software.

[9] = test system: isolated perfused rat hearts; test: Langendorff global ischemia/reperfusion injury in isolated perfused rat hearts (CK release, TTC infarct size, hemodynamics)
[10] = test system: PKC δ; test: PKC delta translocation/redistribution in perfused rat heart and adult rat cardiomyocytes; format: cell-based
[11] = test system: isolated perfused rat hearts; test: Autophagy in isolated perfused rat hearts (LC3-II/LC3-I Western blot, cadaverine dye binding)

CC(=O)OCOC(=O)CN(CC(=O)OCOC(C)=O)c1ccccc1OCCOc1ccccc1N(CC(=O)OCOC(C)=O)CC(=O)OCOC(C)=O [BAPTA-AM]
effect on upregulation/induction of autophagy by CCPA [1]: suprressed the induction of autophagy by CCPA

OC[C@H]1O[C@@H](n2cnc3c(NC4CCCC4)nc(Cl)nc32)[C@H](O)[C@@H]1O [CCPA, 2-chloro-N(6)-cyclopentyladenosine]
number of mCherry-LC3-labeled structures in left ventricle cryosections ([2]; CCPA 1 mg/kg i.p., 30 min): a large increase in the number of mCherry-LC3-labeled structures | percentage of cells with numerous autophagosomes (autophagic flux) ([1]; 100 nM 10 min, full medium, with or without Bafilomycin A1 (FIG. 2)): increased the percentage of cells with numerous autophagosomes under both steady-state and cumulative conditions | autophagosomes after sI/R ([1]; 100 nM 10 min, then 2 hr sI, 3 hr R): Fewer autophagosomes | extent of autophagy induced by starvation ([1]; 100 nM 10 min, then starvation in MKH 3 hr): no effect | autophagy in delayed preconditioning ([1]; 24 hr after 10 min CCPA and washout, normoxia): upregulated | repair autophagy at reperfusion in delayed preconditioning ([1]; 24 hr after 10 min CCPA, then sI/R): less | persistence of the increase in autophagosomes ([1]; CCPA 100 nM): at least 300 min | time to increase in the number of autophagosomes ([1]; CCPA 100 nM): ≤ 10 min | induction of autophagy ([1]; full medium, 0.001-10 μM, 120 min (FIG. 1A)): induced autophagy in a dose-dependent fashion | cytoprotection (LDH release at end of simulated ischemia) [3]: conferred cytoprotection | LDH release ([4]; 100 nM CCPA 10 min before sI/R, end of simulated ischemia): diminished LDH release | number of autophagosomes [5]: an increase in the number of autophagosomes | uptake of propidium iodide [6]: diminished | autophagy (percentage of cells with numerous puncta) ([7]; CCPA 10 min (FIG. 7A)): induced autophagy

CCCn1c(=O)c2[nH]c(C3CCCC3)nc2n(CCC)c1=O [DPCPX]
effect on upregulation/induction of autophagy by CCPA [1]: partially blocked | effect on autophagy in the second window of protection ([1]; with CCPA 10 min, washout, 20-24 hr later): blocked the effects of CCPA on autophagy | effect on cytoprotection by CCPA (LDH release) [4]: Cytoprotection was abolished | effect on cytoprotection by CCPA in the second window of protection (LDH release) ([4]; with CCPA 10 min, washout, sI/R 20-24 hr later): abolished the cytoprotection by CCPA

Nc1ccc(S(=O)(=O)Nc2ccnn2-c2ccccc2)cc1 [SUL, sulfaphenazole]
PKC epsilon translocation [8]: did not show a consistent pattern of translocation | number of autophagosomes in hearts ([2]; SUL 10 mg/kg i.p.): significant increase in the number of autophagosomes | contractility before ischemia ([9]; 10 μM SUL): no effect | infarct size (TTC) ([9]; 10 μM SUL from 10 min before ischemia, 30 min ischemia, 120 min reperfusion): reduced infarct size | recovery of contractile function after I/R ([9]; 10 μM SUL, pre-ischemic administration): about 90 % of pre-ischemic value | CK release ([9]; 10 μM SUL, coronary effluent, first 15 min of reperfusion): attenuated CK release | infarct size ([9]; SUL alone, 120 min reperfusion): 5 % of the area at risk | infarct size (TTC) ([9]; SUL introduced at the onset of reperfusion): the reduction of infarct size was sustained | infarct size (TTC) ([9]; SUL introduced at the onset of reperfusion, listed as sulfaphenazole): reduces infarct size | PKC delta translocation (cytosol to particulate fraction) ([10]; Langendorff-perfused heart, 30 min after SUL infusion): translocation of PKC delta to the particulate fraction | distribution of PKC delta (immunostaining) ([10]; adult rat cardiomyocytes, SUL 15 min): much more closely aligned with alpha-actinin | BODIPY-TR-cadaverine incorporation into autophagosomes ([11]; SUL administration (FIG. 15B)): increased | ratio of LC3-II/I ([11]; SUL perfusion 30 min): doubling | percentage of cells with numerous autophagosomes ([7]; 10 μM SUL, 30 min): significantly increased

COc1ccc2c(c1)CC[C@@H]1[C@@H]2CC[C@]2(C)[C@@H](NCCCCCCN3C(=O)C=CC3=O)CC[C@@H]12 [U73122]
autophagy after sI/R (repair autophagy) ([1]; inhibitor 15 min, then CCPA 10 min, then sI/R): an increase in autophagy after sI/R | effect on upregulation/induction of autophagy by CCPA [1]: PLC is required for CCPA stimulation of autophagy before ischemia | effect on cytoprotection by CCPA (LDH release) [4]: an increase in LDH release

COc1ccc2c(c[n+](C)c3c4cc5c(cc4ccc23)OCO5)c1OC [chelerythrine]
infarct size with or without SUL ([9]; chelerythrine 15 min before ischemia): no difference in infarct size whether SUL is present or absent | effect on autophagy induced by SUL (cadaverine dye binding) ([11]; chelerythrine with SUL): suppressed autophagy induced by SUL | effect on SUL-induced increase in cells with numerous autophagosomes ([7]; chelerythrine 5 μM 10 min before 10 μM SUL): suppressed

C/C=C(/C)C(=O)O[C@H]1C(C)=C2[C@H]([C@@H]1OC(=O)CCCCCCC)[C@@](C)(OC(C)=O)C[C@H](OC(=O)CCC)[C@@]1(O)[C@H]2OC(=O)[C@@]1(C)O [thapsigargin]
effect on upregulation/induction of autophagy by CCPA [1]: suprressed the induction of autophagy by CCPA
